Measurements from US20050009005A1, “Methods of using quantitative lipid metabolome data” (Lipomics Technologies, Inc., priority 2001, published 2005).
Like-named read-outs stand apart in the source and are kept apart here.

Test system: de novo fatty acid synthesis
[1] = Adipose, CE, mean of treated mice
[2] = Adipose, FFA, mean of treated mice
[3] = Adipose, PL, mean of treated mice
[4] = Adipose, TAG, mean of treated mice
[5] = Heart, CE, mean of treated mice
[6] = Heart, FFA, mean of treated mice
[7] = Heart, PC, mean of treated mice
[8] = Heart, PS/I, mean of treated mice
[9] = Heart, TAG, mean of treated mice
[10] = Liver, CE, mean of treated mice

CN(CCOc1ccc(CC2SC(=O)NC2=O)cc1)c1ccccn1 (centres unmarked) [rosiglitazone]
14:0 (Adipose, CE, mean): 3.8 percentage of total fatty acids within each lipid class | 16:0 (Adipose, CE, mean): 10.9 percentage of total fatty acids within each lipid class | 16:1n7 (Adipose, CE, mean): 7.1 percentage of total fatty acids within each lipid class | 18:0 (Adipose, CE, mean): 3.8 percentage of total fatty acids within each lipid class | 18:1n7 (Adipose, CE, mean): 1.3 percentage of total fatty acids within each lipid class | 18:1n9 (Adipose, CE, mean): 31.8 percentage of total fatty acids within each lipid class | Saturates (Adipose, CE, mean): 24.3 percentage of total fatty acids within each lipid class | Total (Adipose, CE, mean): 100.0 percentage of total fatty acids within each lipid class | Total n7 (Adipose, CE, mean): 8.4 percentage of total fatty acids within each lipid class | Total n9 (Adipose, CE, mean): 33.7 percentage of total fatty acids within each lipid class | 14:0 [1]: 131.5 nanomoles per gram | 16:0 [1]: 361.1 nanomoles per gram | 16:1n7 [1]: 248.8 nanomoles per gram | 18:0 [1]: 128.3 nanomoles per gram | 18:1n7 [1]: 44.3 nanomoles per gram | 18:1n9 [1]: 1135.7 nanomoles per gram | Saturates [1]: 833.5 nanomoles per gram | Total n7 [1]: 293.1 nanomoles per gram | Total n9 [1]: 1202.9 nanomoles per gram | Total nMole of [1]: 3405.8 nanomoles per gram | 14:0 (Adipose, FFA, mean): 3.0 percentage of total fatty acids within each lipid class | 16:0 (Adipose, FFA, mean): 16.7 percentage of total fatty acids within each lipid class | 16:1n7 (Adipose, FFA, mean): 8.0 percentage of total fatty acids within each lipid class | 18:0 (Adipose, FFA, mean): 3.6 percentage of total fatty acids within each lipid class | 18:1n7 (Adipose, FFA, mean): 3.4 percentage of total fatty acids within each lipid class | 18:1n9 (Adipose, FFA, mean): 30.4 percentage of total fatty acids within each lipid class | Saturates (Adipose, FFA, mean): 23.9 percentage of total fatty acids within each lipid class | Total (Adipose, FFA, mean): 100.0 percentage of total fatty acids within each lipid class | Total n9 (Adipose, FFA, mean): 30.8 percentage of total fatty acids within each lipid class | 14:0 [2]: 391.9 nanomoles per gram | 16:0 [2]: 2241.1 nanomoles per gram | 16:1n7 [2]: 1073.7 nanomoles per gram | 18:0 [2]: 487.0 nanomoles per gram | 18:1n7 [2]: 461.5 nanomoles per gram | 18:1n9 [2]: 4055.1 nanomoles per gram | Saturates [2]: 3203.6 nanomoles per gram | Total n7 [2]: 1535.2 nanomoles per gram | Total n9 [2]: 4117.3 nanomoles per gram | Total nMole of [2]: 13373.4 nanomoles per gram | 14:0 (Adipose, PL, mean): 1.6 percentage of total fatty acids within each lipid class | 16:0 (Adipose, PL, mean): 18.8 percentage of total fatty acids within each lipid class | 16:1n7 (Adipose, PL, mean): 3.6 percentage of total fatty acids within each lipid class | 18:0 (Adipose, PL, mean): 13.7 percentage of total fatty acids within each lipid class | 18:1n7 (Adipose, PL, mean): 2.8 percentage of total fatty acids within each lipid class | 18:1n9 (Adipose, PL, mean): 18.0 percentage of total fatty acids within each lipid class | Saturates (Adipose, PL, mean): 36.3 percentage of total fatty acids within each lipid class | Total (Adipose, PL, mean): 100.0 percentage of total fatty acids within each lipid class | Total n7 (Adipose, PL, mean): 6.5 percentage of total fatty acids within each lipid class | Total n9 (Adipose, PL, mean): 19.2 percentage of total fatty acids within each lipid class | 14:0 [3]: 152.1 nanomoles per gram | 16:0 [3]: 1706.0 nanomoles per gram | 16:1n7 [3]: 338.8 nanomoles per gram | 18:0 [3]: 1240.0 nanomoles per gram | 18:1n7 [3]: 261.8 nanomoles per gram | 18:1n9 [3]: 1679.9 nanomoles per gram | Saturates [3]: 3281.6 nanomoles per gram | Total n7 [3]: 600.6 nanomoles per gram | Total n9 [3]: 1787.7 nanomoles per gram | Total nMole of [3]: 4559.5 nanomoles per gram | 14:0 (Adipose, TAG, mean): 1.8 percentage of total fatty acids within each lipid class | 16:0 (Adipose, TAG, mean): 22.5 percentage of total fatty acids within each lipid class | 16:1n7 (Adipose, TAG, mean): 7.3 percentage of total fatty acids within each lipid class | 18:0 (Adipose, TAG, mean): 1.5 percentage of total fatty acids within each lipid class | 18:1n7 (Adipose, TAG, mean): 3.2 percentage of total fatty acids within each lipid class | 18:1n9 (Adipose, TAG, mean): 30.5 percentage of total fatty acids within each lipid class | Saturates (Adipose, TAG, mean): 26.2 percentage of total fatty acids within each lipid class | Total (Adipose, TAG, mean): 100.0 percentage of total fatty acids within each lipid class | Total n7 (Adipose, TAG, mean): 10.5 percentage of total fatty acids within each lipid class | Total n9 (Adipose, TAG, mean): 30.8 percentage of total fatty acids within each lipid class | 14:0 [4]: 52712.2 nanomoles per gram | 16:0 [4]: 650079.8 nanomoles per gram | 16:1n7 [4]: 210006.6 nanomoles per gram | 18:0 [4]: 43888.4 nanomoles per gram | 18:1n7 [4]: 93310.6 nanomoles per gram | 18:1n9 [4]: 880178.1 nanomoles per gram | Saturates [4]: 755758.5 nanomoles per gram | Total n7 [4]: 303317.2 nanomoles per gram | Total n9 [4]: 891269.3 nanomoles per gram | Total nMole of [4]: 962282.9 nanomoles per gram | 14:0 (Heart, CE, mean): 4.3 percentage of total fatty acids within each lipid class | 16:0 (Heart, CE, mean): 14.6 percentage of total fatty acids within each lipid class | 16:1n7 (Heart, CE, mean): 3.4 percentage of total fatty acids within each lipid class | 18:0 (Heart, CE, mean): 6.4 percentage of total fatty acids within each lipid class | 18:1n7 (Heart, CE, mean): 1.3 percentage of total fatty acids within each lipid class | 18:1n9 (Heart, CE, mean): 25.5 percentage of total fatty acids within each lipid class | 14:0 [5]: 56.4 nanomoles per gram | 16:0 [5]: 198.8 nanomoles per gram | 16:1n7 [5]: 45.4 nanomoles per gram | 18:0 [5]: 89.0 nanomoles per gram | 18:1n7 [5]: 19.3 nanomoles per gram | 18:1n9 [5]: 370.9 nanomoles per gram | Saturates [5]: 379.2 nanomoles per gram | Total n7 [5]: 64.8 nanomoles per gram | Total n9 [5]: 383.4 nanomoles per gram | Total nMole of [5]: 1358.5 nanomoles per gram | 14:0 (Heart, CL, mean): 0.2 percentage of total fatty acids within each lipid class | 16:0 (Heart, CL, mean): 1.3 percentage of total fatty acids within each lipid class | 16:1n7 (Heart, CL, mean): 2.0 percentage of total fatty acids within each lipid class | 18:0 (Heart, CL, mean): 2.4 percentage of total fatty acids within each lipid class | 18:1n7 (Heart, CL, mean): 3.0 percentage of total fatty acids within each lipid class | 18:1n9 (Heart, CL, mean): 5.0 percentage of total fatty acids within each lipid class | Saturates (Heart, CL, mean): 4.1 percentage of total fatty acids within each lipid class | Total (Heart, CL, mean): 100.0 percentage of total fatty acids within each lipid class | Total n7 (Heart, CL, mean): 5.1 percentage of total fatty acids within each lipid class | Total n9 (Heart, CL, mean): 5.3 percentage of total fatty acids within each lipid class | 14:0 (Heart, FFA, mean): 2.1 percentage of total fatty acids within each lipid class | 16:0 (Heart, FFA, mean): 22.6 percentage of total fatty acids within each lipid class | 16:1n7 (Heart, FFA, mean): 3.0 percentage of total fatty acids within each lipid class | 18:0 (Heart, FFA, mean): 8.3 percentage of total fatty acids within each lipid class | 18:1n7 (Heart, FFA, mean): 3.6 percentage of total fatty acids within each lipid class | 18:1n9 (Heart, FFA, mean): 18.7 percentage of total fatty acids within each lipid class | Saturates (Heart, FFA, mean): 33.8 percentage of total fatty acids within each lipid class | Total (Heart, FFA, mean): 100.0 percentage of total fatty acids within each lipid class | Total n7 (Heart, FFA, mean): 6.6 percentage of total fatty acids within each lipid class | Total n9 (Heart, FFA, mean): 19.4 percentage of total fatty acids within each lipid class | 14:0 [6]: 52.4 nanomoles per gram | 16:0 [6]: 560.7 nanomoles per gram | 16:1n7 [6]: 73.6 nanomoles per gram | 18:0 [6]: 206.9 nanomoles per gram | 18:1n7 [6]: 90.0 nanomoles per gram | 18:1n9 [6]: 466.4 nanomoles per gram | Saturates [6]: 839.0 nanomoles per gram | Total n7 [6]: 163.6 nanomoles per gram | Total n9 [6]: 483.8 nanomoles per gram | Total nMole of [6]: 2482.9 nanomoles per gram | 14:0 (Heart, PC, mean): 0.2 percentage of total fatty acids within each lipid class | 16:0 (Heart, PC, mean): 29.2 percentage of total fatty acids within each lipid class | 16:1n7 (Heart, PC, mean): 1.0 percentage of total fatty acids within each lipid class | 18:0 (Heart, PC, mean): 11.6 percentage of total fatty acids within each lipid class | 18:1n7 (Heart, PC, mean): 4.0 percentage of total fatty acids within each lipid class | 18:1n9 (Heart, PC, mean): 10.7 percentage of total fatty acids within each lipid class | Saturates (Heart, PC, mean): 41.4 percentage of total fatty acids within each lipid class | Total (Heart, PC, mean): 100.0 percentage of total fatty acids within each lipid class | Total n7 (Heart, PC, mean): 5.0 percentage of total fatty acids within each lipid class | Total n9 (Heart, PC, mean): 10.9 percentage of total fatty acids within each lipid class | 14:0 [7]: 68.3 nanomoles per gram | 16:0 [7]: 8497.6 nanomoles per gram | 16:1n7 [7]: 289.1 nanomoles per gram | 18:0 [7]: 3392.4 nanomoles per gram | 18:1n7 [7]: 1154.7 nanomoles per gram | 18:1n9 [7]: 3120.1 nanomoles per gram | Saturates [7]: 12059.6 nanomoles per gram | Total n7 [7]: 1443.8 nanomoles per gram | Total n9 [7]: 3184.2 nanomoles per gram | Total nMole of [7]: 14579.5 nanomoles per gram | 14:0 (Heart, PS/I, mean): 0.3 percentage of total fatty acids within each lipid class | 16:0 (Heart, PS/I, mean): 5.2 percentage of total fatty acids within each lipid class | 16:1n7 (Heart, PS/I, mean): 0.4 percentage of total fatty acids within each lipid class | 18:0 (Heart, PS/I, mean): 33.6 percentage of total fatty acids within each lipid class | 18:1n7 (Heart, PS/I, mean): 1.4 percentage of total fatty acids within each lipid class | 18:1n9 (Heart, PS/I, mean): 5.1 percentage of total fatty acids within each lipid class | Saturates (Heart, PS/I, mean): 39.7 percentage of total fatty acids within each lipid class | Total (Heart, PS/I, mean): 100.0 percentage of total fatty acids within each lipid class | Total n7 (Heart, PS/I, mean): 1.8 percentage of total fatty acids within each lipid class | Total n9 (Heart, PS/I, mean): 5.8 percentage of total fatty acids within each lipid class | 14:0 [8]: 25.3 nanomoles per gram | 16:0 [8]: 515.0 nanomoles per gram | 16:1n7 [8]: 36.4 nanomoles per gram | 18:0 [8]: 3334.5 nanomoles per gram | 18:1n7 [8]: 143.9 nanomoles per gram | 18:1n9 [8]: 504.6 nanomoles per gram | Saturates [8]: 3945.4 nanomoles per gram | Total n7 [8]: 180.2 nanomoles per gram | Total n9 [8]: 572.9 nanomoles per gram | Total nMole of [8]: 4967.1 nanomoles per gram | 14:0 (Heart, TAG, mean): 3.0 percentage of total fatty acids within each lipid class | 16:0 (Heart, TAG, mean): 26.0 percentage of total fatty acids within each lipid class | 16:1n7 (Heart, TAG, mean): 4.9 percentage of total fatty acids within each lipid class | 18:0 (Heart, TAG, mean): 3.5 percentage of total fatty acids within each lipid class | 18:1n7 (Heart, TAG, mean): 3.2 percentage of total fatty acids within each lipid class | 18:1n9 (Heart, TAG, mean): 26.2 percentage of total fatty acids within each lipid class | 14:0 [9]: 160.8 nanomoles per gram | 16:0 [9]: 1597.3 nanomoles per gram | 16:1n7 [9]: 316.4 nanomoles per gram | 18:0 [9]: 173.5 nanomoles per gram | 18:1n7 [9]: 210.7 nanomoles per gram | 18:1n9 [9]: 1775.7 nanomoles per gram | Saturates [9]: 1993.9 nanomoles per gram | Total n7 [9]: 527.1 nanomoles per gram | Total n9 [9]: 1813.1 nanomoles per gram | Total nMole of [9]: 2014.7 nanomoles per gram | 14:0 (Liver, CE, mean): 1.9 percentage of total fatty acids within each lipid class | 16:0 (Liver, CE, mean): 48.0 percentage of total fatty acids within each lipid class | 16:1n7 (Liver, CE, mean): 11.8 percentage of total fatty acids within each lipid class | 18:0 (Liver, CE, mean): 3.5 percentage of total fatty acids within each lipid class | 18:1n7 (Liver, CE, mean): 2.3 percentage of total fatty acids within each lipid class | 18:1n9 (Liver, CE, mean): 19.9 percentage of total fatty acids within each lipid class | Saturates (Liver, CE, mean): 54.6 percentage of total fatty acids within each lipid class | Total (Liver, CE, mean): 100.0 percentage of total fatty acids within each lipid class | Total n7 (Liver, CE, mean): 14.1 percentage of total fatty acids within each lipid class | Total n9 (Liver, CE, mean): 20.5 percentage of total fatty acids within each lipid class | 14:0 [10]: 110.6 nanomoles per gram | 16:0 [10]: 2765.2 nanomoles per gram | 16:1n7 [10]: 678.5 nanomoles per gram
